Laboratory results published in patent US12336982B2 (RODEO THERAPEUTICS CORPORATION, priority 2018, dated 2025).
pIC50: −log10 of the molar value.

Biological target: T1, recombinant 15-PGDH (Homo sapiens, UniProt P15428)
T1 sequence (P15428 1-266): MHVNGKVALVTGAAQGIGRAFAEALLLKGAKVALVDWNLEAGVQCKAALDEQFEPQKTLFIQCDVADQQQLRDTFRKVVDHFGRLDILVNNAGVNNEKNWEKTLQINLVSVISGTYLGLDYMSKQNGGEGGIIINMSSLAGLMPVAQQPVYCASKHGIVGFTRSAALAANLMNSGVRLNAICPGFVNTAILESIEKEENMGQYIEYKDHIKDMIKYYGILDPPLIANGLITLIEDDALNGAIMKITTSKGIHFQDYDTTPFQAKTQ
Type: biochemical
Conditions: recombinant human 15-PGDH, in vitro; read-out: PDGH Assay-IC50
Source text: The Recombinant 15-PGDH is human unless otherwise specified.

COCC[S@@+]([O-])c1sc2nc(-c3cnc(N)nc3)cc(C(F)(F)F)c2c1N [Example 202] and COCC[S+]([O-])c1sc2nc(-c3cnc(C)nc3)cc(C(F)(F)F)c2c1N (stereo not shown) [Example 137] cannot be ordered by pIC50: > 8.60 for the first, > 8.60 for the second.

Cn1nccc1-c1cc(-c2cnc3nnn(C)c3c2)nc2sc([S+]([O-])C3CCC3)c(N)c12 (stereo not shown) [Example 369] and Cn1nccc1-c1cc(-c2cnc3c(c2)nnn3C)nc2sc([S@+]([O-])C3CCC3)c(N)c12 [Example 326] cannot be ordered by pIC50: > 8.60 for the first, > 8.60 for the second.

COCCC[S+]([O-])c1sc2nc(-c3cnc4c(cnn4C)c3)cc(-c3ccccc3)c2c1N (stereo not shown) [Example 116] and COCCC[S+]([O-])c1sc2nc(-c3cnc4c(cnn4CCO)c3)cc(-c3ccccc3)c2c1N (stereo not shown) [Example 301] fall in the same range of pIC50: 8.00 to 8.60 for the first, 8.00 to 8.60 for the second.

Nc1c([S+]([O-])C2CCC2)sc2nc(-c3cnc(NCC(=O)O)nc3)cc(-c3ccccc3)c12 (stereo not shown) [Example 155] and Nc1c([S@+]([O-])C2CCC2)sc2nc(-c3cnc(NCCO)nc3)cc(-c3ccccc3)c12 [Example 51] cannot be ordered by pIC50: > 8.60 for the first, > 8.60 for the second.

Compared with COCCC[S+]([O-])c1sc2nc(-c3cnc(NCCO)nc3)cc(C(F)(F)F)c2c1N (stereo not shown) [Example 139], COCCC[S+]([O-])c1sc2nc(-c3cnc(NCCO)nc3)cc(-c3ccccc3)c2c1N (stereo not shown) [Example 125] is higher in pIC50: 8.00 to 8.60 for the first, > 8.60 for the second. The second is the more potent here.

Going from Nc1c([S@+]([O-])C2CCC2)sc2nc(-c3cnc(NCCOCCO)nc3)cc(-c3ccccc3)c12 [Example 184] to Nc1c([S@@+]([O-])C2CCC2)sc2nc(-c3cnc(NCCOCCO)nc3)cc(-c3ccccc3)c12 [Example 185], the pIC50 falls from > 8.60 to ≤ 8.00.

COCCn1ccc(-c2cc(-c3cnc4nn(C)cc4c3)nc3sc([S@@+]([O-])CCOC)c(N)c23)n1 [Example 388] and COCC[S@+]([O-])c1sc2nc(-c3cnc4nn(C)cc4c3)cc(-c3ccn(C)n3)c2c1N [Example 344] cannot be ordered by pIC50: ≤ 8.00 for the first, ≤ 8.00 for the second.

Compared with CN1CCN(c2ncc(-c3cc(-c4ccccc4)c4c(N)c([S@+]([O-])C5CCC5)sc4n3)cn2)CC1 [Example 48], Nc1c([S+]([O-])C2CCC2)sc2nc(-c3cnc(N4CCOCC4)nc3)cc(-c3ccccc3)c12 (stereo not shown) [Example 194] is lower in pIC50: > 8.60 for the first, 8.00 to 8.60 for the second.

First: COCC[S+]([O-])c1sc2nc(-c3cnc4nn(C)cc4c3)cc(C(F)(F)F)c2c1NC(C)=O (stereo not shown) [Example 208]
Second: COCCC[S+]([O-])c1sc2nc(-c3cnc4nn(C)cc4c3)cc(C(F)(F)F)c2c1N (stereo not shown) [Example 420]
The pIC50 of the first is lower: ≤ 8.00 for the first, > 8.60 for the second.

Going from COCC[S+]([O-])c1sc2nc(-c3cnc4ncn(C)c4c3)cc(C3CC3)c2c1N (stereo not shown) [Example 404] to COCC[S@+]([O-])c1sc2nc(-c3cnc4ncn(C)c4c3)cc(C3CC3)c2c1N [Example 406], the pIC50 falls from > 8.60 to ≤ 8.00. The first is the more potent here.

Cn1nccc1-c1cc(-c2cnc3nnn(C)c3c2)nc2sc([S+]([O-])C3CCC3)c(N)c12 (stereo not shown) [Example 370] and Cn1nccc1-c1cc(-c2cnc3ncn(C)c3c2)nc2sc([S@+]([O-])C3CCC3)c(N)c12 [Example 371] cannot be ordered by pIC50: > 8.60 for the first, > 8.60 for the second.

COCCC[S@@+]([O-])c1sc2nc(-c3cccnc3)cc(C(F)(F)F)c2c1N [Example 78] and COCCC[S+]([O-])c1sc2nc(-c3cccnc3)cc(C(F)(F)F)c2c1N (stereo not shown) [Example 56] cannot be ordered by pIC50: > 8.60 for the first, > 8.60 for the second.

Compared with COCCC[S+]([O-])c1sc2nc(-c3cncnc3)cc(-c3ccncn3)c2c1N (stereo not shown) [Example 237], COCCC[S@+]([O-])c1sc2nc(-c3cncnc3)cc(-c3ccncn3)c2c1N [Example 239] is lower in pIC50: > 8.60 for the first, ≤ 8.00 for the second.

Nc1c([S+]([O-])C2CCC2)sc2nc(-c3cccnc3)cc(C3CCOCC3)c12 (stereo not shown) [Example 43] and Cn1cc(-c2cc(C3CC3)c3c(N)c([S+]([O-])C4CCC4)sc3n2)cn1 (stereo not shown) [Example 277] cannot be ordered by pIC50: > 8.60 for the first, > 8.60 for the second.

Nc1c([S+]([O-])C2CCC2)sc2nc(-c3cnc(NCCO)nc3)cc(-c3ncccc3F)c12 (stereo not shown) [Example 122] and Nc1c([S+]([O-])C2CCC2)sc2nc(-c3cnc(NCCO)nc3)cc(-c3cccc(F)c3)c12 (stereo not shown) [Example 157] cannot be ordered by pIC50: > 8.60 for the first, > 8.60 for the second.

First: CC1(O)CN(c2ncc(-c3cc(-c4ccccc4)c4c(N)c([S+]([O-])C5CCC5)sc4n3)cn2)C1 (stereo not shown) [Example 411]
Second: Nc1c([S+]([O-])C2CCC2)sc2nc(-c3cnc(N4CC(O)C4)nc3)cc(-c3ccccc3)c12 (stereo not shown) [Example 248]
The pIC50 of the first is lower: 8.00 to 8.60 for the first, > 8.60 for the second. The second is the more potent here.

COCCC[S@@+]([O-])c1sc2nc(-c3cnc4c(cnn4C)c3)cc(-c3cccnc3)c2c1N [Example 101] and COCCC[S+]([O-])c1sc2nc(-c3cnc4nn(C)cc4c3)cc(-c3ccccc3)c2c1N (stereo not shown) [Example 123] cannot be ordered by pIC50: > 8.60 for the first, > 8.60 for the second.

COCC[S+]([O-])c1sc2nc(-c3cnc4nn(C)nc4c3)cc(C3CCC3)c2c1N (stereo not shown) [Example 377] and COCC[S+]([O-])c1sc2nc(-c3cnc4ncn(C)c4c3)cc(C3CCC3)c2c1N (stereo not shown) [Example 365] cannot be ordered by pIC50: > 8.60 for the first, > 8.60 for the second.

COCCC[S+]([O-])c1sc2nc(-c3cnc(N)nc3)cc(-c3ccc(F)cc3)c2c1N (stereo not shown) [Example 46] and COCC[S@@+]([O-])c1sc2nc(-c3cnc(N)nc3)cc(-c3ccccc3)c2c1N [Example 87] cannot be ordered by pIC50: > 8.60 for the first, > 8.60 for the second.

First: COCCC[S+]([O-])c1sc2nc(-c3cnc4c(cnn4CCO)c3)cc(C3CC3)c2c1N (stereo not shown) [Example 302]
Second: COCC[S+]([O-])c1sc2nc(-c3cnc4c(c3)nnn4C)cc(C3CC3)c2c1N (stereo not shown) [Example 244]
The pIC50 of the first is lower: 8.00 to 8.60 for the first, > 8.60 for the second.

Cn1nccc1-c1cc(-c2cnc3nccn3c2)nc2sc([S+]([O-])C3CCC3)c(N)c12 (stereo not shown) [Example 320] and Cn1nccc1-c1cc(-c2ccnnc2)nc2sc([S+]([O-])C3CCC3)c(N)c12 (stereo not shown) [Example 345] cannot be ordered by pIC50: > 8.60 for the first, > 8.60 for the second.

Cn1cc(-c2cc(-c3cncnc3)nc3sc([S+]([O-])C4CCC4)c(N)c23)cn1 (stereo not shown) [Example 282] and Cn1cnc(-c2cc(-c3cncnc3)nc3sc([S@+]([O-])C4CCC4)c(N)c23)c1 [Example 64] cannot be ordered by pIC50: > 8.60 for the first, > 8.60 for the second.

COCC[S+]([O-])c1sc2nc(-c3cnn(C)c(=O)c3)cc(-c3ccccc3)c2c1N (stereo not shown) [Example 397] and COCC[S+]([O-])c1sc2nc(-c3cnn(CCO)c3)cc(-c3ccccc3)c2c1N (stereo not shown) [Example 271] cannot be ordered by pIC50: > 8.60 for the first, > 8.60 for the second.

Compared with Cn1nccc1-c1cc(-c2cnc3c(c2)CNC3=O)nc2sc([S+]([O-])C3CCC3)c(N)c12 (stereo not shown) [Example 305], Cn1nccc1-c1cc(-c2cnc3ncn(C)c3c2)nc2sc([S@@+]([O-])C3CCC3)c(N)c12 [Example 372] is lower in pIC50: > 8.60 for the first, ≤ 8.00 for the second.

Going from COCC[S@+]([O-])c1sc2nc(-c3cncnc3)cc(C3CCC3)c2c1N [Example 253] to COCC[S+]([O-])c1sc2nc(-c3cnc4ncnn4c3)cc(C3CCC3)c2c1N (stereo not shown) [Example 400], the pIC50 rises from ≤ 8.00 to > 8.60. The second is the more potent here.

COCCC[S@@+]([O-])c1sc2nc(-c3cncnc3)cc(-c3ncccn3)c2c1N [Example 111] and COCC[S+]([O-])c1sc2nc(-c3cncnc3)cc(-c3ccnc(C)c3)c2c1N (stereo not shown) [Example 127] cannot be ordered by pIC50: > 8.60 for the first, > 8.60 for the second.

CNC(=O)c1ncc(-c2cc(-c3ccccc3)c3c(N)c([S+]([O-])CCCOC)sc3n2)cn1 (stereo not shown) [Example 165] and COCCC[S+]([O-])c1sc2nc(-c3cnc(O)nc3)cc(-c3ccccc3)c2c1N (stereo not shown) [Example 166] fall in the same range of pIC50: 8.00 to 8.60 for the first, 8.00 to 8.60 for the second.

Nc1ncc(-c2cc(-c3ncccc3F)c3c(N)c([S+]([O-])C4CCC4)sc3n2)cn1 (stereo not shown) [Example 76] and Nc1ncc(-c2cc(-c3ncccn3)c3c(N)c([S+]([O-])C4CCC4)sc3n2)cn1 (stereo not shown) [Example 328] cannot be ordered by pIC50: > 8.60 for the first, > 8.60 for the second.

CN(C)CCOc1ccc(-c2cc(-c3ccccc3)c3c(N)c([S+]([O-])C4CCC4)sc3n2)cn1 (stereo not shown) [Example 60] and Nc1c([S@@+]([O-])C2CCC2)sc2nc(-c3cnc4ncnn4c3)cc(-c3ccccc3)c12 [Example 403] cannot be ordered by pIC50: 8.00 to 8.60 for the first, ≤ 8.00 for the second.

First: COCC[S@+]([O-])c1sc2nc(-c3ccnnc3)cc(-c3ccccc3)c2c1N [Example 212]
Second: COCCC[S+]([O-])c1sc2nc(-c3cnn(CCO)c3)cc(-c3ccccc3)c2c1N (stereo not shown) [Example 273]
The pIC50 of the first is lower: ≤ 8.00 for the first, > 8.60 for the second.

First: COCC[S+]([O-])c1sc2nc(-c3ccc(NC(=O)OC)nc3)cc(-c3cccnc3)c2c1N (stereo not shown) [Example 390]
Second: COC(=O)Nc1ccc(-c2cc(-c3ccnn3C)c3c(N)c([S+]([O-])C4CCC4)sc3n2)cn1 (stereo not shown) [Example 392]
The pIC50 of the first is lower: 8.00 to 8.60 for the first, > 8.60 for the second. The second is the more potent here.

COCC[S+]([O-])c1sc2nc(-c3cnc4c(c3)ncn4C)cc(C3CCC3)c2c1N (stereo not shown) [Example 373] and COCC[S+]([O-])c1sc2nc(-c3cnc4nnn(C)c4c3)cc(C3CCC3)c2c1N (stereo not shown) [Example 368] cannot be ordered by pIC50: > 8.60 for the first, > 8.60 for the second.

Compared with COCCC[S+]([O-])c1sc2nc(-c3cnc(N4CC(O)C4)nc3)cc(-c3ccccc3)c2c1N (stereo not shown) [Example 290], Nc1c([S+]([O-])C2CCC2)sc2nc(-c3cnc(C(=O)NCCO)nc3)cc(-c3ccccc3)c12 (stereo not shown) [Example 129] is higher in pIC50: 8.00 to 8.60 for the first, > 8.60 for the second.

CC(=O)N1CCC(c2cc(-c3ccc(F)cc3)c3c(N)c([S+]([O-])C4CCC4)sc3n2)CC1 (stereo not shown) [Example 59] and Cn1cncc(-c2cc(-c3ccccc3)c3c(N)c([S+]([O-])C4CCC4)sc3n2)c1=O (stereo not shown) [Example 410] cannot be ordered by pIC50: ≤ 8.00 for the first, 8.00 to 8.60 for the second.

Cn1nccc1-c1cc(-c2cnc3c(c2)ncn3C)nc2sc([S+]([O-])C3CCC3)c(N)c12 (stereo not shown) [Example 383] and COCC[S+]([O-])c1sc2nc(-c3cnc4c(c3)nnn4C)cc(-c3ccnn3C)c2c1N (stereo not shown) [Example 324] cannot be ordered by pIC50: > 8.60 for the first, > 8.60 for the second.

Nc1ncc(-c2cc(-c3ccno3)c3c(N)c([S+]([O-])C4CCC4)sc3n2)cn1 (stereo not shown) [Example 350] and CS(=O)(=O)Nc1ncc(-c2cc(-c3cccnc3)c3c(N)c([S+]([O-])C4CCC4)sc3n2)cn1 (stereo not shown) [Example 93] cannot be ordered by pIC50: > 8.60 for the first, > 8.60 for the second.

With Nc1c([S+]([O-])C2CCC2)sc2nc(-c3cnc(NCCO)nc3)cc(-c3cccc(Cl)c3)c12 (stereo not shown) [Example 192] the pIC50 was > 8.60.
